The molecules below were run against T1, Tyrosine-protein kinase Fyn (Homo sapiens, UniProt P06241) (assay: Inhibition of peptide EPQ (pY) EEIPI binding to Fyn protein kinase SH2 domain at 100 uM (no inhibition)).
T1 sequence (P06241 whole entry, the tested form may be a part): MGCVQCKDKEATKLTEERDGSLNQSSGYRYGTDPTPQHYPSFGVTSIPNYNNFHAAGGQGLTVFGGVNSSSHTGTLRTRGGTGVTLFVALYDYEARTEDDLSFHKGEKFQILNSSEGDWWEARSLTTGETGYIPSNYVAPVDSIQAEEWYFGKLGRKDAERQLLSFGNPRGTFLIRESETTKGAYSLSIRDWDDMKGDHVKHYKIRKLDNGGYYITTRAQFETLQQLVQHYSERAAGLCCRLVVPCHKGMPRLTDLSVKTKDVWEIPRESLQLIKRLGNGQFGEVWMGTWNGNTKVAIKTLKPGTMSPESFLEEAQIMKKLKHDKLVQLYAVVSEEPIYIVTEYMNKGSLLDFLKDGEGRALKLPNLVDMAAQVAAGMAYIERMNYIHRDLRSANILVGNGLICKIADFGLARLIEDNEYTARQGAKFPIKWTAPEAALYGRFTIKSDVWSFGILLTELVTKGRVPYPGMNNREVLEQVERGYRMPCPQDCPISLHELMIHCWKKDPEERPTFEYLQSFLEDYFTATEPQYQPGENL
With `CCCN(CCC)CCc1ccc(O)c(O)c1` the IC50 was greater than 100 µM.
For `CCCN(CCC)C1Cc2cc(O)c(OC)cc2C1` (centres undefined), the IC50 was greater than 100 µM.
`CCCN(CCC)C1Cc2ccc(O)cc2C1` (centres undefined) gave an IC50 greater than 100 µM.
`CCCN(CCC)C1Cc2cc(O)cc(O)c2C1` (centres undefined) was tested, and the IC50 was greater than 100 µM.
Molecule `NCCc1ccc(O)c(O)c1` [DOPAMINE] has an IC50 greater than 100 µM.
Molecule `CCCN(CCC)C1Cc2cc(OC)c(OC)cc2C1` [PNU-99194A] has an IC50 greater than 100 µM.

Each molecule was assayed against T1, Tyrosine-protein kinase Fyn (assay: Inhibition of peptide EPQ (pY) EEIPI binding to Fyn protein kinase SH2 domain).
In the case of `Oc1cc2c(cc1O)CC(NCc1ccccc1)C2`, the IC50 is reported as 10 µM.
`CCCN(CCC)C1CCc2cc(O)c(O)cc2C1` (centres undefined) was tested, and the IC50 was 50 µM.
`CC1=CC(=O)C(=O)C=C1C` gave an IC50 of 1 µM.
Work on `CCCN(CCC)C1Cc2c(O)ccc(O)c2C1` yielded an IC50 of 50 µM.
In the case of `NC1Cc2cc(O)c(O)cc2C1`, the IC50 is reported as 10 µM.
`CCCN(CCC)C1Cc2cc(O)c(O)cc2C1` was tested, and the IC50 was 10 µM.
For `Oc1cc2c(cc1O)CC(N1CCCCC1)C2`, the IC50 was 10 µM.
Work on `CCCC1Cc2cc(O)c(O)cc2C1` yielded an IC50 of 1 µM.

Reference: ChEMBL document CHEMBL1130553, “Covalent binding of catechols to src family SH2 domains” (Bioorg Med Chem Lett, 1997)
